Structures are written as SMILES.

In the experiment the target is T1, ΔF508-CFTR (Homo sapiens, UniProt P13569, DEL508-508).
T1 construct: expressed in transfected cells
T1 sequence (P13569 with tags, fused parts or gaps DEL508-508): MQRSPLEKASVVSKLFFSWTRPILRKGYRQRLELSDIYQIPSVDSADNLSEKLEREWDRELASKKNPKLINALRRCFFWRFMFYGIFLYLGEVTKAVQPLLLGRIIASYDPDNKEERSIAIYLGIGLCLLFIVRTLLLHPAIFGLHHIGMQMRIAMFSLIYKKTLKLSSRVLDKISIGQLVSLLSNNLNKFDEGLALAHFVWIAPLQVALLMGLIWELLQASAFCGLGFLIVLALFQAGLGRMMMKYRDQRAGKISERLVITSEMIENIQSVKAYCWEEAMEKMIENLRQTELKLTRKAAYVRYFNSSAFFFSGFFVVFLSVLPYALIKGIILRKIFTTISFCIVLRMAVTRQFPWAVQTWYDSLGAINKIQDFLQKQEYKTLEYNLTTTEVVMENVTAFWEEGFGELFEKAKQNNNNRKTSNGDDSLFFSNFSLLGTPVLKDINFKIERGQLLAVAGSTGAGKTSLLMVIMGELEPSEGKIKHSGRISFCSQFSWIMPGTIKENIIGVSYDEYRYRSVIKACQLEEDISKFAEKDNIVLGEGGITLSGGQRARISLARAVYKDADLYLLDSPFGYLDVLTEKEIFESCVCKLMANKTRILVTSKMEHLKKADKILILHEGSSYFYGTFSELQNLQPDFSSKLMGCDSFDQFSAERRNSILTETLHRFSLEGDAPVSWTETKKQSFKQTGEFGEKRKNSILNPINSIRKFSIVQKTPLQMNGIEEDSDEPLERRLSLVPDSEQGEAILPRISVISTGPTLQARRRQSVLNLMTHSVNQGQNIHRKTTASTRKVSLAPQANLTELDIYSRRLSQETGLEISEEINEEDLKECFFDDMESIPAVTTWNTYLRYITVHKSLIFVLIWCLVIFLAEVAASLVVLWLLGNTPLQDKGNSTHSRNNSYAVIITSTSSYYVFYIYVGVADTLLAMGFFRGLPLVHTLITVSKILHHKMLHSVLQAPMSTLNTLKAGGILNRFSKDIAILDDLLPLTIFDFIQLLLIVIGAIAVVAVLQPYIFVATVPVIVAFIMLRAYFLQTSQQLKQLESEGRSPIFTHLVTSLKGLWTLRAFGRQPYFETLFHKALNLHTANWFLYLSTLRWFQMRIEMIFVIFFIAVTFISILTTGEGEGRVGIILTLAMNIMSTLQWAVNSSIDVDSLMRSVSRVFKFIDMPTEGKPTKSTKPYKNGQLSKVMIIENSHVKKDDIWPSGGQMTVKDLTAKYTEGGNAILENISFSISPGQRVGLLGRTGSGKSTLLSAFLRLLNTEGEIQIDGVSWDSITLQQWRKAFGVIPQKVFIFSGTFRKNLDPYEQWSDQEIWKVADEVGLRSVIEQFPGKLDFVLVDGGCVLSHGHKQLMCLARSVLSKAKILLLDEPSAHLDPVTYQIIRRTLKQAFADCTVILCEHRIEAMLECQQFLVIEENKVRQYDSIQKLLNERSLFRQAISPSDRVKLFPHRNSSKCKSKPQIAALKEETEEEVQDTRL
The experiment is described as follows: Membrane potential optical assay, identification of correction compounds (ΔF508-CFTR correction). Type of experiment: cell-based. Conditions: PercentActivity; NIH3T3 mouse fibroblasts stably expressing ΔF508-CFTR; 16-24 hrs with compound; read-out: Binned Max Efficacy. The text has this:
Membrane potential optical methods for assaying ΔF508-CFTR modulation properties of compounds.
The assay utilizes fluorescent voltage sensing dyes to measure changes in membrane potential using a fluorescent plate reader (e.g., FLIPR III, Molecular Devices, Inc.) as a readout for increase in functional ΔF508-CFTR in NIH 3T3 cells. The driving force for the response is the creation of a chloride ion gradient in conjunction with channel activation by a single liquid addition step after the cells have previously been treated with compounds and subsequently loaded with a voltage sensing dye.
To identify small molecules that correct the trafficking defect associated with ΔF508-CFTR; a single-addition HTS assay format was developed. Assay Plates containing cells are incubated for ˜2-4 hours in tissue culture incubator at 37° C., 5% CO2, 90% humidity. Cells are then ready for compound exposure after adhering to the bottom of the assay plates.
The cells were incubated in serum-free medium for 16-24 firs in tissue culture incubator at 37° C., 5% CO2, 90% humidity in the presence or absence (negative control) of test compound. The cells were subsequently rinsed 3× with Krebs Ringers solution and loaded with a voltage sensing redistribution dye. To activate ΔF508-CFTR, 10 μM forskolin and the CFTR potentiator, genistein (20 μM), were added along with Cl^−-free medium to each well. The addition of Cl^−-free medium promoted Cl^− efflux in response to ΔF508-CFTR activation and the resulting membrane depolarization was optically monitored using voltage sensor dyes.
Bath Solution #1: (in mM) NaCl 160, KCl 4.5, CaCl2 2, MgCl2 1, HEPES 10, pH 7.4 with NaOH.
Chloride-free bath solution: Chloride salts in Bath Solution #1 are substituted with gluconate salts.
NIH3T3 mouse fibroblasts stably expressing ΔF508-CFTR are used for optical measurements of membrane potential. The cells are maintained at 37° C. in 5% CO2 and 90% humidity in Dulbecco's modified Eagle's medium supplemented with 2 mM glutamine, 10% fetal bovine serum, 1×NEAA, β-ME, 1× pen/strep, and 25 mM HEPES in 175 cm^2 culture flasks. For all optical assays, the cells were seeded at ˜20,000/well in 384-well matrigel-coated plates and cultured for 2 hrs at 37° C. before culturing at 27° C. for 24 hrs. for the potentiator assay. For the correction assays, the cells are cultured at 27° C. or 37° C. with and without compounds for 16-24 hours.
For the compound `O=C(Nc1ccc2cc[nH]c2n1)C1(c2ccc3c(c2)OCO3)CC1` [Compound 1, 1-(benzo[d][1,3]dioxol-5-yl)-N-(1H-pyrrolo[2,3-b]pyridin-6-yl)cyclopropanecarboxamide], the Emax was more than 100%.

Turning to `COc1ccc(C2(C(=O)Nc3ccc4[nH]c(C(C)(C)C)cc4n3)CC2)cc1` [Compound 2, N-(2-tert-butyl-1H-pyrrolo[3,2-b]pyridin-5-yl)-1-(4-methoxyphenyl)cyclopropanecarboxamide], the Emax fell in the range of 25 to 100%. For `COc1ccc(C2(C(=O)Nc3cnc4[nH]c(C(C)(C)C)cc4c3)CC2)cc1` [Compound 3, N-(2-tert-butyl-1H-pyrrolo[2,3-b]pyridin-5-yl)-1-(4-methoxyphenyl)cyclopropanecarboxamide] the value was 25 to 100%; for `COc1cccc(C2(C(=O)Nc3ccc4[nH]c(C(C)(C)C)cc4n3)CC2)c1` [Compound 4, N-(2-tert-butyl-1H-pyrrolo[3,2-b]pyridin-5-yl)-1-(3-methoxyphenyl)cyclopropanecarboxamide], 25 to 100%. For `COc1cccc(C2(C(=O)Nc3cnc4[nH]c(C(C)(C)C)cc4c3)CC2)c1` [Compound 5] the value was 25 to 100%; for `CC(C)(C)c1cc2cc(NC(=O)C3(c4ccc5c(c4)OCO5)CC3)cnc2[nH]1` [Compound 6], more than 100%. Then `CC(C)(C)c1cc2nc(NC(=O)C3(c4ccc5c(c4)OCO5)CC3)ccc2[nH]1` [Compound 7], with 25 to 100%; and `CC(C)(C)c1cc2cc(NC(=O)C3(c4ccc5c(c4)OCO5)CC3)ncc2[nH]1` [Compound 8], with 25 to 100%; and `CCc1cc2cc(NC(=O)C3(c4ccc5c(c4)OC(F)(F)O5)CC3)ncc2[nH]1` [Compound 9, 1-(2,2-difluorobenzo[d][1,3]dioxol-5-yl)-N-(2-ethyl-1H-pyrrolo[2,3-c]pyridin-5-yl)cyclopropanecarboxamide], with more than 100%. Consider `CC1(c2cc3cc(NC(=O)C4(c5ccc6c(c5)OC(F)(F)O6)CC4)ncc3[nH]2)CC1` [Compound 10, 1-(2,2-difluorobenzo[d][1,3]dioxol-5-yl)-N-(2-(1-methylcyclopropyl)-1H-pyrrolo[2,3-c]pyridin-5-yl)cyclopropanecarboxamide], for which the Emax is more than 100%. For `O=C(Nc1cc2cc(C3CCC3)[nH]c2cn1)C1(c2ccc3c(c2)OC(F)(F)O3)CC1` [Compound 11, N-(2-cyclobutyl-1H-pyrrolo[2,3-c]pyridin-5-yl)-1-(2,2-difluorobenzo[d][1,3]dioxol-5-yl)cyclopropanecarboxamide] the value was more than 100%. Turning to `CC(C)(C)c1cc2nc(NC(=O)C3(c4ccc5c(c4)OC(F)(F)O5)CC3)ccc2[nH]1` [Compound 12, N-(2-tert-butyl-1H-pyrrolo[3,2-b]pyridin-5-yl)-1-(2,2-difluorobenzo[d][1,3]dioxol-5-yl)cyclopropanecarboxamide], the Emax was more than 100%. For `CC(C)(C)c1cc2cc(NC(=O)C3(c4ccc5c(c4)OC(F)(F)O5)CC3)cnc2[nH]1` [Compound 13, N-(2-tert-butyl-1H-pyrrolo[2,3-b]pyridin-5-yl)-1-(2,2-difluorobenzo[d][1,3]dioxol-5-yl)cyclopropanecarboxamide] the value was more than 100%. For `CC(C)(C)c1cc2cc(NC(=O)C3(c4ccc5c(c4)OC(F)(F)O5)CC3)ncc2[nH]1` [Compound 14, N-(2-tert-butyl-1H-pyrrolo[2,3-c]pyridin-5-yl)-1-(2,2-difluorobenzo[d][1,3]dioxol-5-yl)cyclopropanecarboxamide] the value was more than 100%; for `CC(C)(C)c1cc2cc(NC(=O)C3(c4ccc5c(c4)OC(F)(F)O5)CC3)ncc2n1CCO` [Compound 15, N-(2-tert-butyl-1-(2-hydroxyethyl)-1H-pyrrolo[2,3-c]pyridin-5-yl)-1-(2,2-difiuorobenzo[d][1,3]dioxol-5-yl)cyclopropanecarboxamide], more than 100%.

Source of the values: patent US9732080B2 (Vertex Pharmaceuticals Incorporated, priority 2006, dated 2017).
